Counter-ions that a name gives are not always drawn.
What was measured:
VEGF [1] = experiment: Western blotting of VEGF expression in isolated rat pulmonary artery ring, short-term (acute) hypoxia; type: cell-based
Protocol: (§1) In our in vitro short-term experiment, isolated rat pulmonary artery was grown under normoxia (20% O2) or hypoxia (1% O2) at 37° C. for 24 hrs as was previously done (Wu BN, et al. Int J Immunopathol Pharmacol 24:925, 2011). The heart weight and body weight ratio (HW/BW) of the rats treated with one of SPAAX-1, SPAAX-1 RX complex, Sildenafil or Sildenafil RX complex each measured on the 21st hypoxic day. All animal care and the experimental protocols of this study were approved by the Animal Care and Use Committee of the Kaohsiung Medical University. Male Wistar rats (200-250 g), provided by the National Laboratory Animal Breeding and Research Center (Taipei, Taiwan), were housed under constant temperature and controlled illumination. Food and water were available ad libitum.
(§2) Whole right lung tissues of hypoxia-treated and untreated rats were isolated and cut into small strips and placed into an extraction buffer (Tris 10 mM, pH 7.0, NaCl 140 mM, PMSF 2 mM, DTT 5 mM, NP-40 0.5%, pepstatin A 0.05 mM and leupeptin 0.2 mM) for protein extraction, and then centrifuged at 12,500 g for 30 min. To measure the expression levels of the proteins, the total proteins were extracted and Western blotting analysis was performed as described previously (Bivalacqua T J, et al., 2013, TJ PLoSONE 8: e68028. doi:10.1371/journal. pone.0068028). Briefly, the protein extract was boiled to a ratio of 4:1 with a sample buffer (Tris 100 mM, pH 6.8, glycerol 20%, SDS 4% and bromophenol blue 0.2%). Electrophoresis was performed using 10% SDS-polyacrylamide gel (2 hr, 100 V, 40 mA, […] protein per lane). Separated proteins were transferred to PVDF membranes treated with 5% fat-free milk powder to block the nonspecific IgGs (90 min, 100 V) and incubated for one hour with a specific protein antibody. The blot was then incubated with anti-mouse or anti-goat IgG linked to alkaline phosphatase (1:1000) for 1 hr. Immunoreactive bands were visualized using horseradish peroxidase-conjugated secondary antibodies and subsequent electrochemiluminescence (ECL) detection (GE Healthcare Bio-Sciences Corp., Piscataway, N.J., U.S.A.). Mouse or rabbit monoclonal antibody of eNOS (Upstate, N.Y., U.S.A.), sGCα (Sigma-Adrich, CA, U.S.A., sGCβ (Santa Cruz, Calif., U.S.A.), PDE-5A (BD Tansduction, San Jose, Calif., U.S.A.), PKG (Calbiochem, San Diego, Calif., U.S.A.) ROCKII (Upstate, N.Y., U.S.A.), RhoA (Santa Cruze, Calif., U.S.A.) and the loading control protein β-actin (Sigma-Adrich, MO, U.S.A.) were used in our Western blot analysis.
(§3) The Western blotting analysis measurements were performed as per lung tissue.

eNOS [2] = experiment: Western blotting of eNOS expression in isolated rat pulmonary artery ring, short-term (acute) hypoxia or normoxia; type: cell-based; details: acute hypoxia, Normoxia 100, Hypoxia 65.3 ± 7.8
Protocol: as §1, §2, §3

ROCK II [3] = experiment: Cigarette smoking-induced Rho/ROCK activation of rat pulmonary artery ring; type: in vivo; details: Intraperitoneal (100 mg/kg) 1 h prior to smoke exposure, Non-Smoking control 100, Smoking 530 ± 34
Protocol: Intraperitoneal SAA complex (100 mg/kg in 200 μl of the solution) or 200 μl of saline (control) were given to animals through intraperitoneal injection 1 h prior to smoke exposure.
as §2

eNOS [4] = experiment: Streptozotocin (STZ) induced eNOS down-regulation of rat carvenosa tissue; type: in vivo; details: STZ model; 2.5 mg/kg; Control 100, STZ 60 ± 7.3
Protocol: (§4) Electrophoresis was performed using 10% SDS-polyacrylamide gel (2 hr, 100 V, 40 mA, […] protein per lane). Separated proteins were transferred to PVDF membranes treated with 5% fat-free milk powder to block the nonspecific IgGs (90 min, 100 V) and incubated for one hour with a specific protein antibody. The blot was then incubated with anti-mouse or anti-goat IgG linked to alkaline phosphatase (1:1000) for 1 hr. Immunoreactive bands were visualized using horseradish peroxidase-conjugated secondary antibodies and subsequent electrochemiluminescence (ECL) detection (GE Healthcare Bio-Sciences Corp., Piscataway, N.J., U.S.A.). Mouse or rabbit monoclonal antibody of eNOS (Upstate, N.Y., U.S.A.), sGCα (Sigma-Adrich, CA, U.S.A., sGCβ (Santa Cruz, Calif., U.S.A.), PDE-5A (BD Tansduction, San Jose, Calif., U.S.A.), PKG (Calbiochem, San Diego, Calif., U.S.A.) ROCKII (Upstate, N.Y., U.S.A.), RhoA (Santa Cruze, Calif., U.S.A.) and the loading control protein β-actin (Sigma-Adrich, MO, U.S.A.) were used in our Western blot analysis.

ROCK II [5] = experiment: Cigarette smoking-induced Rho/ROCK activation of rat pulmonary artery ring; type: in vivo; details: Nebulization (2.5 mM), Non-Smoking control 100, Smoking 540 ± 28
ROCK II [6] = experiment: Streptozotocin (STZ) induced RhoA/ROCKII activation of rat carvenosa tissue; type: in vivo; details: STZ model; 2.5 mg/kg; Control 100, STZ 142 ± 28
Protocol: as §4

eNOS [7] = experiment: Western blotting of eNOS expression in rat carvenosus strip, acute hypoxia; type: cell-based; set-up: unit not given here
VEGF [8] = experiment: Western blotting of VEGF expression in rat carvenosus strip, acute hypoxia; type: cell-based; set-up: unit not given here
ROCK II [9] = experiment: Western blotting of ROCK II expression in isolated rat pulmonary artery ring, short-term (acute) hypoxia or normoxia; type: cell-based; details: acute hypoxia, Normoxia 100, Hypoxia 560 ± 21
Protocol: as §1, §2, §3

[10] = Normoxia 100, Hypoxia 62.4 ± 5.5

Compound	VEGF expression, Pulmonary Artery Ring (VEGF [1]; Normoxia 100, Hypoxia 175 ± 14)	eNOS expression, Pulmonary Artery Ring (eNOS [2])	ROCK II of pulmonary artery ring (ROCK II [3])	eNOS, Carvanosus tissue (eNOS [4])	ROCK II of pulmonary artery ring (ROCK II [5])	ROCK II, Carvanosus tissue (ROCK II [6])	eNOS expression, Carvenosus (eNOS [7]; [10])	VEGF expression, Carvenosus (VEGF [8]; Normoxia 100, Hypoxia 170 ± 15)	ROCK II expression, Pulmonary Artery Ring (ROCK II [9])	VEGF expression, Pulmonary Artery Ring (VEGF [1]; Normoxia 100, Hypoxia 175 ± 14, listed as 1007)	eNOS expression, Pulmonary Artery Ring (eNOS [2]; listed as 1007)	eNOS expression, Carvenosus (eNOS [7]; Normoxia 100, Hypoxia 62.4 ± 5.5, listed as 1007)	VEGF expression, Carvenosus (VEGF [8]; Normoxia 100, Hypoxia 170 ± 15, listed as 1007)	ROCK II expression, Pulmonary Artery Ring (ROCK II [9]; listed as 1007)
Cl.Cn1c(=O)c2c(ncn2CCN2CCN(c3ccccc3Cl)CC2)n(C)c1=O [Reagent 3, 7-[2-[4-(2-chlorophenyl)piperazinyl]ethyl]-1,3-dimethylxanthine HCl Complex]	108 ± 8.2	136 ± 4.6	76 ± 5.3	140 ± 5.3%	76 ± 6.2	40 ± 5.2%	102 ± 5.8	110 ± 9.4	255 ± 4.6	–	–	–	–	–
CCCc1nn(C)c2c(=O)[nH]c(-c3cc(S(=O)(=O)N4CCN(C)CC4)ccc3OCC)nc12.Cl [Reagent 1003, Sildenafil HCl complex]	94 ± 9.8	116 ± 7.2	82 ± 7.6	–	62 ± 4.8	–	110 ± 5.2	105 ± 16	–	–	–	–	–	–
CCCc1nn(C)c2c(=O)[nH]c(-c3cc(S(=O)(=O)N4CCN(C)CC4)ccc3OCC)nc12 [Reagent 1004, Sildenafil citrate complex, reference compound]	110 ± 3.8	132 ± 6.6	76 ± 6.8	74 ± 6.8%	64 ± 3.8	44 ± 3.8%	125 ± 6.9	105 ± 9.2	205 ± 8.5	–	–	–	–	–
CCCc1nn(C)c2c(=O)[nH]c(-c3cc(S(=O)(=O)N4CCN(C)CC4)ccc3OCC)nc12.O=C1OC(C(O)CO)C(O)=C1O [Reagent 1007, Sildenafil L-ascorbate complex]	–	–	84 ± 8.2	84 ± 8.2%	66 ± 5.1	38 ± 5.1%	–	–	–	92 ± 6.4	160 ± 5.8	142 ± 6.9	94 ± 6.8	190 ± 7.7
CCCc1nn(C)c2c(=O)[nH]c(-c3cc(S(=O)(=O)N4CCN(C)CC4)ccc3OCC)nc12.O=C(O)c1ccccc1O [Reagent 1016, Sildenafil-Salicylate complex]	90 ± 5.2	165 ± 16	–	–	–	–	110 ± 4.7	90 ± 7.5	178 ± 19	–	–	–	–	–
Sildenafil Arginate complex [Reagent 1017]	90 ± 6.4	180 ± 12	–	–	–	–	124 ± 11	90 ± 8.2	182 ± 21	–	–	–	–	–
